Entries after “also recorded” stand apart in the source; their conditions may differ.
Experiments:
[1] = system: homozygous mutant dopamine transporter knockout (KO) mice; assay: Spontaneous activity in the open field, dopamine transporter KO mice; assay type: in vivo
Description: Male and female wild-type and homozygous mutant dopamine transporter KO mice (n˜10 mice/genotype/agent; produced by in vivo homologous recombination and bred at Duke University Medical Center, Durham, N.C.) were tested for spontaneous activity in the open field following a single injection of the vehicle or compound. […] All drugs were given in a volume of 5 mL/kg. Animals were returned to the open field for an additional 90 min. Spontaneous activity was evaluated in an automated Omnitech Digiscan apparatus (Accuscan Instruments, Columbus, Ohio). Activity was summated at 5 min intervals over the 2 h period of testing. Horizontal activity or locomotion was measured in terms of the total distance covered in cm, vertical activity or rearing was expressed in terms of the total numbers of vertical beam breaks, and stereotypy was quantified in terms of repetitive breaks of a given beam or beams with intervals of less than 1 sec. For the analyses, 10 WT and 10 KO mice were run in each of the treatment groups with approximately equal numbers of males and females assigned to each group. Data were analyzed by the Statistical Package for Social Sciences programs (version 11.0 for Windows; SPSS Science, Chicago, Ill.). The results for each dependent variable were analyzed by repeated analyses of variance (RMANOVA) for within subjects effects (group differences over time) and between-subjects effects (tests of main effects and interactions). Bonferroni corrected pair-wise comparisons were used as the post-hoc tests. A p <0.05 was considered significant.

[2] = target: T1, hNET (human norepinephrine transporter) (Homo sapiens, UniProt P23975); assay type: binding; conditions: HEK-hNET cells; mean ± SEM
T1 construct: expressed in transfected cells; host or cells: HEK293 (ATCC), geneticin-selected clonal cells
T1 sequence (P23975 whole entry): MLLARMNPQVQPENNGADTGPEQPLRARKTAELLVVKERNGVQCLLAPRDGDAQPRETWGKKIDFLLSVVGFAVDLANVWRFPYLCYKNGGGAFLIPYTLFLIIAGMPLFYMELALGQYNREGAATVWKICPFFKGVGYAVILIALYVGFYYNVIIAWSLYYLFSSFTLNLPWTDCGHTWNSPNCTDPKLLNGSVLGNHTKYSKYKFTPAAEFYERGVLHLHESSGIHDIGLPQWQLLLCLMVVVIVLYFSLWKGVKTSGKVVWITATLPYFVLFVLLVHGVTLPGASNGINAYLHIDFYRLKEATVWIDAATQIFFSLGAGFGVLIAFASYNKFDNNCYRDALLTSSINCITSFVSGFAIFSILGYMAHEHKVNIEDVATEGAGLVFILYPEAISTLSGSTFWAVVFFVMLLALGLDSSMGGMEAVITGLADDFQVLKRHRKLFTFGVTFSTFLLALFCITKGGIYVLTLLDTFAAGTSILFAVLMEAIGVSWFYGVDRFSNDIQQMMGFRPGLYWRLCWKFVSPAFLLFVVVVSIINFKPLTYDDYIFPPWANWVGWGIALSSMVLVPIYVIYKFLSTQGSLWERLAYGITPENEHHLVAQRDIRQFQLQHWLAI

[3] = target: T2, hSERT (human serotonin transporter) (Homo sapiens, UniProt P31645); assay: Inhibition of [125I]RTI-55 binding to hSERT in HEK293 cell membranes; conditions: HEK-hSERT cells; mean ± SEM
T2 construct: expressed in transfected cells; host or cells: HEK293 (ATCC), puromycin-selected clonal cells
T2 sequence (P31645 whole entry): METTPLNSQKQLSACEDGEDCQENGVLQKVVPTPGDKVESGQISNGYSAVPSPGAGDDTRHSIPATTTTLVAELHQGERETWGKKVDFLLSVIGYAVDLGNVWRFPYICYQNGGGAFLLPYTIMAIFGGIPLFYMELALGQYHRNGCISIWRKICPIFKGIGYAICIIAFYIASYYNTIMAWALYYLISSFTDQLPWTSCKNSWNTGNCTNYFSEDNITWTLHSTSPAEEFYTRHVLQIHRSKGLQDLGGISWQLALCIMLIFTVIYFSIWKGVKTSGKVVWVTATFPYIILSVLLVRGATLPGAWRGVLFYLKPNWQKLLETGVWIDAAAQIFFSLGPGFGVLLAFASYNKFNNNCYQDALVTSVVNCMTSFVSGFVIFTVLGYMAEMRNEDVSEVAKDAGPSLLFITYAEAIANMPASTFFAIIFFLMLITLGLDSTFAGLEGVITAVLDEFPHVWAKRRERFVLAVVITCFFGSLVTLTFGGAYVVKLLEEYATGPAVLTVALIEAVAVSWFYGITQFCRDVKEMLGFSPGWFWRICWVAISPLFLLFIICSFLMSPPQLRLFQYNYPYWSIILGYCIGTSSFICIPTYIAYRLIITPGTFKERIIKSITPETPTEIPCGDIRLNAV

[4] = target: T3, hDAT (human dopamine transporter) (Homo sapiens, UniProt Q01959); assay: Inhibition of [125I]RTI-55 binding to hDAT in HEK293 cell membranes; conditions: HEK-hDAT cells; mean ± SEM
T3 construct: expressed in transfected cells; host or cells: HEK293 (ATCC), puromycin-selected clonal cells
T3 sequence (Q01959 whole entry): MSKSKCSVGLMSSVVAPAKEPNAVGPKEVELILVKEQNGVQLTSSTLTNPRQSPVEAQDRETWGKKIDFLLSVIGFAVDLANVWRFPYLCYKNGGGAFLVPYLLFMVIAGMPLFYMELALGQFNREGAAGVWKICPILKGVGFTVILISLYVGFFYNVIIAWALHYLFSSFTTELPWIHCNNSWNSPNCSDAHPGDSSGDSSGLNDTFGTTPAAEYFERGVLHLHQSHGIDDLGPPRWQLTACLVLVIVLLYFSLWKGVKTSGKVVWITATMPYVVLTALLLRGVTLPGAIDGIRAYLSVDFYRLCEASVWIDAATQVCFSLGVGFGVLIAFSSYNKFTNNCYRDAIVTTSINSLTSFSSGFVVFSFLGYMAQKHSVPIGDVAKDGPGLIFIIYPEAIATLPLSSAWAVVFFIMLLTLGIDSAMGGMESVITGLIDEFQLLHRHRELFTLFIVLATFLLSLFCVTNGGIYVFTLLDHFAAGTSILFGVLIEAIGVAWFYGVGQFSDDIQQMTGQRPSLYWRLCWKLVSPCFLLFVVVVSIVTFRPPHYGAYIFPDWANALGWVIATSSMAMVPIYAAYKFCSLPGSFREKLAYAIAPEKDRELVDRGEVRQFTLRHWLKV

NC(=O)OC[C@H](N)Cc1ccccc1 [test compound, O-carbamoyl-(D)-phenylalaninol]
spontaneous activity (locomotor, rearing and stereotypical activities) ([1]; single SC injection, test compound 10, 30, 100 mg/kg, amphetamine 2 mg/kg, 90 min post-injection, relative to vehicle): selectively reduced activity of the KO mice in a dose-dependent manner; also recorded: reduced activities in a dose-dependent fashion
spontaneous activity compared with amphetamine ([1]; test compound 100 mg/kg SC versus amphetamine 2 mg/kg SC): suppressed activities more efficiently than amphetamine
Hill coefficient [2]: −1.45 ± 0.34
Hill coefficient [3]: −2.28 ± 0.05
Hill coefficient [4]: −0.77 ± 0.12
